Test [1] deals with T1, human recombinant 5-lipoxygenase (Homo sapiens, UniProt P09917).
T1 construct: purchased Cayman 60402
T1 sequence (P09917 1-674): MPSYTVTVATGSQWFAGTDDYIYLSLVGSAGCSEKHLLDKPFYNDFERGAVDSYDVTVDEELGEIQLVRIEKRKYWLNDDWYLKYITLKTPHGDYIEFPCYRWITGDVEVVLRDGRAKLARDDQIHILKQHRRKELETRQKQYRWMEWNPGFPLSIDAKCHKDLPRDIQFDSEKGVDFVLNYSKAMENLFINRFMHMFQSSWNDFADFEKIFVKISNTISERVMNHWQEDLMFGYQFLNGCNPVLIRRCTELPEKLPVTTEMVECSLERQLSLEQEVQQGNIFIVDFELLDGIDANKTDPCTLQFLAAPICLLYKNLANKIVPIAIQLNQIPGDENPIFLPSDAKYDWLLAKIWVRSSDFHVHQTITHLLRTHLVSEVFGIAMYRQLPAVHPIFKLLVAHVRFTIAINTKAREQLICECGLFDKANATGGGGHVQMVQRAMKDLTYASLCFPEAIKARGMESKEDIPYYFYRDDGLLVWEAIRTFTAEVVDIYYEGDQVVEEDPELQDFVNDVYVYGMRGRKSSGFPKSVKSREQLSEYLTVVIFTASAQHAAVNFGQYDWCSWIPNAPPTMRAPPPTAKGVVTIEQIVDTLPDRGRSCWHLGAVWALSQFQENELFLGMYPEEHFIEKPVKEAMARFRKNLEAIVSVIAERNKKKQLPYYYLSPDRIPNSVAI
As to the kind of experiment: 5-Lipoxygenase Enzyme Assay (colorimetric, ferric oxidation of xylenol orange). The following applies: 70 μM arachidonic acid, 10 minute incubation at room temperature, 5 concentrations in triplicate starting at 10 μM; read-out: inhibition of 5-Lipoxygenase, IC50. It is filed as biochemical. The protocol:
This procedure was used for measuring the enzymatic activity of human recombinant 5-lipoxygenase using a colorimetric method based on the ferric oxidation of xylenol orange.
Human recombinant 5-lipoxygenase (Cayman Cat # 60402) was used in this assay. The test compound and/or vehicle was added to 0.5 μL 5-lipoxygenase in 50 mM Tris-HCl buffer, pH 7.4. The reaction was initiated by addition of 70 μM arachidonic acid in Tris-HCl buffer, pH 7.4, and terminated after a 10 minute incubation at room temperature by addition of FOX reagent (25 mM sulfuric acid, 100 μM xylenol orange, 100 μM iron (II) sulphate, methanol:water 9:1). The yellow color of acidified xylenol orange was converted to a blue color by the lipid hydroperoxide-mediated oxidation of Fe^2+ ions and the interaction of the resulting Fe^3+ ions with the dye. The complex was allowed to form during a 1 hour incubation at room temperature with shaking. Absorbance of the Fe^3+ complex was then measured at […] using a spectrophotometer.
Negative controls contained enzyme during the incubation step but substrate was not added until after the FOX reagent. Compounds were screened at 5 concentrations in triplicate starting at 10 μM.

For test [2], the target named is T2, porcine leukocyte 12/15-lipoxygenase (Sus scrofa, UniProt P16469).
T2 construct: purchased Cayman 60300
T2 sequence (P16469 1-663): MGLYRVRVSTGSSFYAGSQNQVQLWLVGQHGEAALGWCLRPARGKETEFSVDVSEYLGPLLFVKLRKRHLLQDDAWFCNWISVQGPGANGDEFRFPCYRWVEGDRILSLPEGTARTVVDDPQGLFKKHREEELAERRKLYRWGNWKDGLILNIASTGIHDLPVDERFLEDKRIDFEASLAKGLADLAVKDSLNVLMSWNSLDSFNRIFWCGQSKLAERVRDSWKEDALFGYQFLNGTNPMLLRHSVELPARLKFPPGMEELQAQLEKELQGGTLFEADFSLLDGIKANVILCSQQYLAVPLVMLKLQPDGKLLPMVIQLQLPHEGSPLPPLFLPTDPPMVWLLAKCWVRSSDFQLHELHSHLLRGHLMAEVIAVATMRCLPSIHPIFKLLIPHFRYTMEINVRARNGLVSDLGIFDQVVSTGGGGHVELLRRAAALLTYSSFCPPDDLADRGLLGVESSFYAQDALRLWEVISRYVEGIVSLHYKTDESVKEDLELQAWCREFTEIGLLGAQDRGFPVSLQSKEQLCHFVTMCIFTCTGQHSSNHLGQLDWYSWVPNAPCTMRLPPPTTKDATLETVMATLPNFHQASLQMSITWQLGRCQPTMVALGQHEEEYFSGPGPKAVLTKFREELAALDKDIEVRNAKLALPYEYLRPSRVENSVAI
As to the kind of experiment: 12/15-Lipoxygenase Enzyme Assay (colorimetric, ferric oxidation of xylenol orange). It is filed as biochemical. The following applies: 70 μM arachidonic acid, 10 minute incubation at room temperature, 5 concentrations in triplicate starting at 10 μM; read-out: inhibition of 12/15-Lipoxygenase, IC50. The protocol: This procedure was used for measuring the enzymatic activity of porcine leukocyte 12/15-lipoxygenase using a colorimetric method based on the ferric oxidation of xylenol orange.
Porcine Leukocyte 12/15-lipoxygenase (Cayman Cat # 60300) was used in this assay. Test compound and/or vehicle were added to 1.3 μL 12/15-lipoxygenase in 50 mM Tris-HCl buffer, pH 7.4. The reaction was initiated by addition of 70 μM arachidonic acid in Tris-HCl buffer, pH 7.4 and terminated after a 10 minute incubation at room temperature by addition of FOX reagent (25 mM sulfuric acid, 100 μM xylenol orange, 100 μM iron (II) sulphate, methanol:water 9:1). The yellow color of acidified xylenol orange was converted to a blue color by the lipid hydroperoxide-mediated oxidation of Fe^2+ ions and the interaction of the resulting Fe^3+ ions with the dye. The complex was allowed to form during a 1 hour incubation at room temperature with shaking. Absorbance of the Fe^3+ complex was then measured at […] using a spectrophotometer.
Negative controls contained enzyme during the incubation step but substrate was not added until after the FOX reagent.
Compounds are screened at 5 concentrations in triplicate starting at 10 μM.

Where only a bound is given, the exact number is not on record here.

Take `Cc1c(C)c2c(c(C)c1O)C(O)CC(C)(C)O2` (centres unmarked) [2,2,5,7,8-pentamethylchroman-4,6-diol]: the IC50 in test [1] was less than 3 µM; in test [2], less than 5 µM.
On to `Cc1c(O)cc2c(c1C)OC(C)(C)CC2O` (centres unmarked) [2,2,7,8-tetramethylchroman-4,6-diol], for which the IC50 in test [1] is less than 3 µM.
Turning to `CONC1CC(C)(C)Oc2c(C)c(C)c(O)c(C)c21` (centres unmarked) [4-Methoxyamino-2,2,5,7,8-pentamethyl-chroman-6-ol], the IC50 is less than 3 µM in test [1] and less than 5 µM in test [2].
Regarding `Cc1c(C)c2c(c(C)c1O)C(=NN(C)C)CC(C)(C)O2` [6-Hydroxy-2,2,5,7,8-pentamethyl-2,3-dihydro-4H-chromen-4-one dimethylhydrazone], the IC50 in test [1] was less than 3 µM.
Turning to `CON=C1CC(C)(C)Oc2c(C)c(C)c(O)c(C)c21` [6-Hydroxy-2,2,5,7,8-pentamethyl-chroman-4-one O-methyl-oxime], the results for the IC50 in test [1] and in test [2] were less than 3 µM and less than 5 µM, respectively.
With `CON=C1CC(C)(C)Sc2c(C)c(C)c(O)c(C)c21` [6-Hydroxy-2,2,5,7,8-pentamethyl-thiochroman-4-one O-methyl-oxime], the IC50 in test [1] was less than 3 µM; in test [2] it was less than 5 µM.
As to `CO/N=C1/Cc2c(C)c(O)c(C)c(C)c2OC1(C)C` [6-hydroxy-2,2,5,7,8-pentamethylchroman-3-one O-methyl oxime], in test [2], the IC50 was less than 5 µM.

The values above are taken from patent publication US20060193797A1, “Chroman derivatives as lipoxygenase inhibitors” (Galileo Pharmaceuticals, Inc, priority 2005, published 2006).
